Reference: ChEMBL document CHEMBL6109110, “Novel cationic dihydropyrrol-2-one compounds as antimicrobial agents and quorum sensing inhibitors” (Bioorg Med Chem, 2025)
In brackets after ≈: the same amount, converted by molar mass. Activity calls are given as the source filed them. No cut-off for these calls is given here.

Legend:
Staphylococcus aureus = assay: Antibacterial activity against Staphylococcus aureus isolate 38 measured after 18 to 24 hrs by broth microdilution method; format: functional; conditions: time 18-24 hrs
Escherichia coli = assay: Antibacterial activity against Escherichia coli K12 measured after 18 to 24 hrs by broth microdilution method; format: functional; conditions: time 18-24 hrs
Pseudomonas aeruginosa [1] = assay: Antibacterial activity against Pseudomonas aeruginosa PAO1 measured after 18 to 24 hrs by broth microdilution method; format: functional; conditions: time 18-24 hrs
[2] = target: T1, Transcriptional activator protein LasR (Pseudomonas aeruginosa (strain ATCC 15692 / PAO1 / 1C / PRS 101 / LMG12228)) (UniProt P25084); assay: Inhibition of LasR quorum sensing system in Pseudomonas aeruginosa MH602 expressing PlasB::gfp assessed as reduction in GFP expression at 16 uM incubated for 15 hrs by fluorescence microplate reader analysis relative to control
T1 sequence (whole entry): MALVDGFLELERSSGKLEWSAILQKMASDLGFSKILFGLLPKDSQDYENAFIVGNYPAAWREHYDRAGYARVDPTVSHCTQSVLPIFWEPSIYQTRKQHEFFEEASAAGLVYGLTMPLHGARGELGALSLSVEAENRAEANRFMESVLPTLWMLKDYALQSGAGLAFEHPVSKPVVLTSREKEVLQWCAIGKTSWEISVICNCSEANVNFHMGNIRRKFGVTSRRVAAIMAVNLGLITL

Pseudomonas aeruginosa [3] = assay: Growth inhibition of Pseudomonas aeruginosa MH602 expressing PlasB::gfp at 16 uM relative to control; format: functional; conditions: read-out: GI
[4] = Inhibition of quorum sensing system in Pseudomonas aeruginosa PAO1 assessed as reduction in pyocyanin production at 64 uM measured after 48 hrs relative to control
[5] = Hemolytic activity in horse RBC measured after 4 hrs; format: toxicity, cell-based, Equus caballus, Erythrocyte; conditions: horse red blood cells
[6] = Hemolytic activity in horse RBC assessed as hemolysis at 500 uM measured after 4 hrs relative to control; format: toxicity, cell-based, Equus caballus, Erythrocyte; conditions: horse red blood cells, read-out: Activity

Row | SMILES | MIC90 (Staphylococcus aureus) [µM] | MIC90 (Escherichia coli) [µM] | MIC90 (Pseudomonas aeruginosa [1]) [µM] | inhibition [2] [%] | inhibition [4] | inhibition of growth at 16 µM (Pseudomonas aeruginosa [3]) [%] | HC50 at 4 h [5] [µM] | hemolysis at 4 h, 500 µM [6] [%]
1 | C=C1C(c2ccc(Cl)cc2)=CC(=O)N1CCSC(=N)N | 125 (≈ 38.5 µg/mL) | > 250 | > 250 | 40.8 | – | – | – | –
2 | C=C1C(c2ccc(Cl)cc2)=CC(=O)N1CCC[n+]1ccn(C)c1 | 250 | > 250 | > 250 | 17.3 | inactive | – | – | –
3 | C=C1C(c2ccc(Br)cc2)=CC(=O)N1CCC[Se]C(=N)N | 32 (≈ 13.2 µg/mL) | 64 (≈ 26.4 µg/mL) | 250 (≈ 103 µg/mL) | 53.2 | – | – | > 250 | –
4 | C=C1C(c2ccc(Cl)cc2)=CC(=O)N1CCC[Se]C(=N)N | 64 (≈ 23.6 µg/mL) | 125 (≈ 46.1 µg/mL) | > 250 | 56.2 | – | – | > 500 | –
5 | C=C1C(c2ccccc2)=CC(=O)N1CC[Se]C(=N)N | > 250 | > 250 | > 250 | 30.5 | – | – | – | –
6 | C=C1C(c2ccc(Cl)cc2)=CC(=O)N1CC[Se]C(=N)N | 64 (≈ 22.7 µg/mL) | 125 (≈ 44.3 µg/mL) | > 250 | 72.8 | – | 15 | > 500 | –
7 | C=C1C(c2ccc(F)cc2)=CC(=O)N1CCC[Se]C(=N)N | 250 (≈ 88.1 µg/mL) | 250 (≈ 88.1 µg/mL) | > 250 | 41.9 | – | – | – | –
8 | C=C1C(c2ccccc2)=CC(=O)N1CCC[n+]1ccn(C)c1 | > 250 | > 250 | > 250 | 17.6 | inactive | – | – | –
9 | C=C1C(c2ccc(F)cc2)=CC(=O)N1CC[Se]C(=N)N | 64 (≈ 21.6 µg/mL) | 250 (≈ 84.6 µg/mL) | > 250 | 64.5 | – | – | – | –
10 | C=C1C(c2ccc(Br)cc2)=CC(=O)N1CC[Se]C(=N)N | 64 (≈ 25.5 µg/mL) | 125 (≈ 49.9 µg/mL) | > 250 | 69.4 | 70% | – | – | –
11 | C=C1C(c2ccccc2)=CC(=O)N1CCC[Se]C(=N)N | 250 (≈ 83.6 µg/mL) | > 250 | > 250 | 51.5 | – | – | – | –

Second part, led by results:

Row | MIC90 (Staphylococcus aureus) [µM] | MIC90 (Escherichia coli) [µM] | MIC90 (Pseudomonas aeruginosa [1]) [µM] | inhibition [2] [%] | inhibition [4] | SMILES | inhibition of growth at 16 µM (Pseudomonas aeruginosa [3]) [%] | HC50 at 4 h [5] [µM] | hemolysis at 4 h, 500 µM [6] [%]
12 | 250 (≈ 72.8 µg/mL) | 250 (≈ 72.8 µg/mL) | > 250 | 73.4 | 70% | C=C1C(c2ccc(F)cc2)=CC(=O)N1CCSC(=N)N | 16 | – | –
13 | 250 | > 250 | > 250 | 23.4 | inactive | C=C1C(c2ccc(Cl)cc2)=CC(=O)N1CC[n+]1ccn(C)c1 | – | – | –
14 | 250 | 250 | > 250 | 14.4 | inactive | C=C1C(c2ccccc2)=CC(=O)N1CC[n+]1ccn(C)c1 | – | – | –
15 | 64 | 250 | > 250 | 0 | inactive | C=C1C(c2ccc(Br)cc2)=CC(=O)N1CC[n+]1ccn(C)c1 | – | – | –
16 | 64 (≈ 20.6 µg/mL) | 64 (≈ 20.6 µg/mL) | 250 (≈ 80.5 µg/mL) | 53.1 | 70% | C=C1C(c2ccc(Cl)cc2)=CC(=O)N1CCCSC(=N)N | – | – | –
17 | > 250 | > 250 | > 250 | 31.4 | inactive | C=C1C(c2ccc(F)cc2)=CC(=O)N1CC[n+]1ccn(C)c1 | – | – | –
18 | 125 (≈ 35.9 µg/mL) | > 250 | > 250 | 0 | – | C=C1C(c2ccccc2)=CC(=O)N1CCCSC(=N)N | > 20 | – | –
19 | 16 (≈ 5.64 µg/mL) | 32 (≈ 11.3 µg/mL) | 125 (≈ 44 µg/mL) | 57.1 | – | C=C1C(c2ccc(Br)cc2)=CC(=O)N1CCSC(=N)N | – | > 500 | 22
20 | 64 (≈ 23.4 µg/mL) | 64 (≈ 23.4 µg/mL) | 250 (≈ 91.6 µg/mL) | 48.3 | – | C=C1C(c2ccc(Br)cc2)=CC(=O)N1CCCSC(=N)N | < 20 | – | –
21 | > 250 | > 250 | > 250 | 9.5 | > 60% | C=C1C(c2ccccc2)=CC(=O)N1CCSC(=N)N | > 20 | – | –
22 | 64 (≈ 19.5 µg/mL) | 125 (≈ 38.2 µg/mL) | 250 (≈ 76.3 µg/mL) | 59.9 | – | C=C1C(c2ccc(F)cc2)=CC(=O)N1CCCSC(=N)N | – | > 500 | –
23 | – | – | – | 62.5 | – | O=C1C=C(Br)/C(=C/Br)O1 | – | – | –
24 | 32 | 125 | > 250 | 0 | inactive | C=C1C(c2ccc(Br)cc2)=CC(=O)N1CCC[n+]1ccn(C)c1 | – | > 31 | –
25 | > 250 | > 250 | > 250 | 14.6 | inactive | C=C1C(c2ccc(F)cc2)=CC(=O)N1CCC[n+]1ccn(C)c1 | – | – | –
